ChEMBL document CHEMBL5724914, “Linking interpersonal differences in gut microbiota composition and drug biotransformation activity” (2024)

Key:
[1] = The drug is tested on Z-028 corresponding to mouse gut metagenome with ENA study accession number: PRJEB37062 and ENA sample accession number: ERS12561827 for biotransformation under anaerobic condition. The drug concentrations were measured over 9 timepoints collected between 0 and 24 hours of incubation by liquid-chromatography-coupled mass spectrometry (LC–MS); conditions: 2 µM
[2] = human gut metagenome, 24 h, 2 µM
[3] = The drug is tested on WLS-082 corresponding to human gut metagenome with ENA study accession number: PRJEB37062 and ENA sample accession number: ERS12561751 for biotransformation under anaerobic condition. The drug concentrations were measured over 9 timepoints collected between 0 and 24 hours of incubation by liquid-chromatography-coupled mass spectrometry (LC–MS); conditions: 2 µM
[4] = human gut metagenome, 24 h, 2 µM; remark: listed apart in the source
[5] = The drug is tested on WLS-010 corresponding to human gut metagenome with ENA study accession number: PRJEB37062 and ENA sample accession number: ERS12561743 for biotransformation under anaerobic condition. The drug concentrations were measured over 9 timepoints collected between 0 and 24 hours of incubation by liquid-chromatography-coupled mass spectrometry (LC–MS); conditions: 2 µM
[6] = human gut metagenome, 24 h, 2 µM; remark: listed apart in the source
[7] = human gut metagenome, 24 h, 2 µM; remark: listed apart in the source
[8] = The drug is tested on Z-026 corresponding to metagenome with ENA study accession number: PRJEB37062 and ENA sample accession number: ERS12561825 for biotransformation under anaerobic condition. The drug concentrations were measured over 9 timepoints collected between 0 and 24 hours of incubation by liquid-chromatography-coupled mass spectrometry (LC–MS); conditions: 2 µM
[9] = The drug is tested on Z-029 corresponding to rat gut metagenome with ENA study accession number: PRJEB37062 and ENA sample accession number: ERS12561828 for biotransformation under anaerobic condition. The drug concentrations were measured over 9 timepoints collected between 0 and 24 hours of incubation by liquid-chromatography-coupled mass spectrometry (LC–MS); conditions: 2 µM
[10] = human gut metagenome, 24 h, 2 µM; remark: listed apart in the source
[11] = The drug is tested on Z-021 corresponding to metagenome with ENA study accession number: PRJEB37062 and ENA sample accession number: ERS12561820 for biotransformation under anaerobic condition. The drug concentrations were measured over 9 timepoints collected between 0 and 24 hours of incubation by liquid-chromatography-coupled mass spectrometry (LC–MS); conditions: 2 µM
[12] = The drug is tested on Z-013 corresponding to rabbit gut metagenome with ENA study accession number: PRJEB37062 and ENA sample accession number: ERS12561813 for biotransformation under anaerobic condition. The drug concentrations were measured over 9 timepoints collected between 0 and 24 hours of incubation by liquid-chromatography-coupled mass spectrometry (LC–MS); conditions: 2 µM
[13] = The drug is tested on WLS-170 corresponding to human gut metagenome with ENA study accession number: PRJEB37062 and ENA sample accession number: ERS12561762 for biotransformation under anaerobic condition. The drug concentrations were measured over 9 timepoints collected between 0 and 24 hours of incubation by liquid-chromatography-coupled mass spectrometry (LC–MS); conditions: 2 µM
[14] = The drug is tested on Z-020 corresponding to rabbit gut metagenome with ENA study accession number: PRJEB37062 and ENA sample accession number: ERS12561819 for biotransformation under anaerobic condition. The drug concentrations were measured over 9 timepoints collected between 0 and 24 hours of incubation by liquid-chromatography-coupled mass spectrometry (LC–MS); conditions: 2 µM
[15] = human gut metagenome, 24 h, 2 µM; remark: listed apart in the source
[16] = The drug is tested on Z-002 corresponding to rabbit gut metagenome with ENA study accession number: PRJEB37062 and ENA sample accession number: ERS12561802 for biotransformation under anaerobic condition. The drug concentrations were measured over 9 timepoints collected between 0 and 24 hours of incubation by liquid-chromatography-coupled mass spectrometry (LC–MS); conditions: 2 µM
[17] = human gut metagenome, 24 h, 2 µM; remark: listed apart in the source
[18] = The drug is tested on WLS-370 corresponding to human gut metagenome with ENA study accession number: PRJEB37062 and ENA sample accession number: ERS12561793 for biotransformation under anaerobic condition. The drug concentrations were measured over 9 timepoints collected between 0 and 24 hours of incubation by liquid-chromatography-coupled mass spectrometry (LC–MS); conditions: 2 µM
[19] = The drug is tested on WLS-027 corresponding to human gut metagenome with ENA study accession number: PRJEB37062 and ENA sample accession number: ERS12561744 for biotransformation under anaerobic condition. The drug concentrations were measured over 9 timepoints collected between 0 and 24 hours of incubation by liquid-chromatography-coupled mass spectrometry (LC–MS); conditions: 2 µM
[20] = human gut metagenome, 24 h, 2 µM; remark: listed apart in the source
Also: call rule not given here.

## CCS(=O)(=O)CCn1c([N+](=O)[O-])cnc1C [TINIDAZOLE]
[1]
  Bacterial Biotransformation: Compound metabolized
[2]
  Bacterial Biotransformation: Compound metabolized
[3]
  Bacterial Biotransformation: Compound metabolized
[4]
  Bacterial Biotransformation: Compound metabolized
[5]
  Bacterial Biotransformation: Compound metabolized
[6]
  Bacterial Biotransformation: Compound metabolized
[7]
  Bacterial Biotransformation: Compound metabolized
[8]
  Bacterial Biotransformation: Compound metabolized
[9]
  Bacterial Biotransformation: Compound metabolized
[10]
  Bacterial Biotransformation: Compound metabolized
[11]
  Bacterial Biotransformation: Compound metabolized
[12]
  Bacterial Biotransformation: Compound metabolized
[13]
  Bacterial Biotransformation: Compound metabolized
[14]
  Bacterial Biotransformation: Compound metabolized
[15]
  Bacterial Biotransformation: Compound metabolized
[16]
  Bacterial Biotransformation: Compound metabolized
[17]
  Bacterial Biotransformation: Compound metabolized
[18]
  Bacterial Biotransformation: Compound metabolized
[19]
  Bacterial Biotransformation: Compound metabolized
[20]
  Bacterial Biotransformation: Compound metabolized

## COc1ccnc(C[S+]([O-])c2nc3ccc(OC(F)F)cc3[nH]2)c1OC (stereo not given) [PANTOPRAZOLE]
[1]
  Bacterial Biotransformation: Compound metabolized
[2]
  Bacterial Biotransformation: Compound metabolized
[3]
  Bacterial Biotransformation: Compound metabolized
[4]
  Bacterial Biotransformation: Compound metabolized
[5]
  Bacterial Biotransformation: Compound metabolized
[6]
  Bacterial Biotransformation: Compound metabolized
[7]
  Bacterial Biotransformation: Compound metabolized
[8]
  Bacterial Biotransformation: Compound metabolized
[9]
  Bacterial Biotransformation: Compound metabolized
[10]
  Bacterial Biotransformation: Compound metabolized
[11]
  Bacterial Biotransformation: Compound metabolized
[12]
  Bacterial Biotransformation: Compound metabolized
[13]
  Bacterial Biotransformation: Compound metabolized
[14]
  Bacterial Biotransformation: Compound metabolized
[15]
  Bacterial Biotransformation: Compound metabolized
[16]
  Bacterial Biotransformation: Compound NOT metabolized
[17]
  Bacterial Biotransformation: Compound metabolized
[18]
  Bacterial Biotransformation: Compound metabolized
[19]
  Bacterial Biotransformation: Compound metabolized
[20]
  Bacterial Biotransformation: Compound metabolized

## CC(C)c1c(CN(C)C(C)Cc2ccccc2)n(C)n(-c2ccccc2)c1=O (stereo not given) [FAMPROFAZONE]
[1]
  Bacterial Biotransformation: Compound NOT metabolized
[2]
  Bacterial Biotransformation: Compound metabolized
[3]
  Bacterial Biotransformation: Compound metabolized
[4]
  Bacterial Biotransformation: Compound metabolized
[5]
  Bacterial Biotransformation: Compound metabolized
[6]
  Bacterial Biotransformation: Compound NOT metabolized
[7]
  Bacterial Biotransformation: Compound metabolized
[8]
  Bacterial Biotransformation: Compound NOT metabolized
[9]
  Bacterial Biotransformation: Compound NOT metabolized
[10]
  Bacterial Biotransformation: Compound metabolized
[11]
  Bacterial Biotransformation: Compound metabolized
[12]
  Bacterial Biotransformation: Compound metabolized
[13]
  Bacterial Biotransformation: Compound metabolized
[14]
  Bacterial Biotransformation: Compound NOT metabolized
[15]
  Bacterial Biotransformation: Compound metabolized
[16]
  Bacterial Biotransformation: Compound metabolized
[17]
  Bacterial Biotransformation: Compound metabolized
[18]
  Bacterial Biotransformation: Compound metabolized
[19]
  Bacterial Biotransformation: Compound metabolized
[20]
  Bacterial Biotransformation: Compound metabolized

## CN1CCC(=C2c3ccccc3CC(=O)c3sccc32)CC1.O=C(O)/C=C/C(=O)O [KETOTIFEN FUMARATE]
[1]
  Bacterial Biotransformation: Compound NOT metabolized
[2]
  Bacterial Biotransformation: Compound metabolized
[3]
  Bacterial Biotransformation: Compound NOT metabolized
[4]
  Bacterial Biotransformation: Compound NOT metabolized
[5]
  Bacterial Biotransformation: Compound NOT metabolized
[6]
  Bacterial Biotransformation: Compound NOT metabolized
[7]
  Bacterial Biotransformation: Compound metabolized
[8]
  Bacterial Biotransformation: Compound NOT metabolized
[9]
  Bacterial Biotransformation: Compound NOT metabolized
[10]
  Bacterial Biotransformation: Compound NOT metabolized
[11]
  Bacterial Biotransformation: Compound NOT metabolized
[12]
  Bacterial Biotransformation: Compound NOT metabolized
[13]
  Bacterial Biotransformation: Compound metabolized
[14]
  Bacterial Biotransformation: Compound NOT metabolized
[15]
  Bacterial Biotransformation: Compound NOT metabolized
[16]
  Bacterial Biotransformation: Compound NOT metabolized
[17]
  Bacterial Biotransformation: Compound metabolized
[18]
  Bacterial Biotransformation: Compound metabolized
[19]
  Bacterial Biotransformation: Compound NOT metabolized
[20]
  Bacterial Biotransformation: Compound metabolized

## C=CC[C@@H]1/C=C(\C)C[C@H](C)C[C@H](OC)[C@H]2O[C@@](O)(C(=O)C(=O)N3CCCC[C@H]3C(=O)O[C@H](/C(C)=C/[C@@H]3CC[C@@H](O)[C@H](OC)C3)[C@H](C)[C@@H](O)CC1=O)[C@H](C)C[C@@H]2OC.O [TACROLIMUS]
[1]
  Bacterial Biotransformation: Compound NOT metabolized
[2]
  Bacterial Biotransformation: Compound metabolized
[3]
  Bacterial Biotransformation: Compound metabolized
[4]
  Bacterial Biotransformation: Compound NOT metabolized
[5]
  Bacterial Biotransformation: Compound metabolized
[6]
  Bacterial Biotransformation: Compound metabolized
[7]
  Bacterial Biotransformation: Compound metabolized
[8]
  Bacterial Biotransformation: Compound NOT metabolized
[9]
  Bacterial Biotransformation: Compound NOT metabolized
[10]
  Bacterial Biotransformation: Compound metabolized
[11]
  Bacterial Biotransformation: Compound NOT metabolized
[12]
  Bacterial Biotransformation: Compound NOT metabolized
[13]
  Bacterial Biotransformation: Compound metabolized
[14]
  Bacterial Biotransformation: Compound NOT metabolized
[15]
  Bacterial Biotransformation: Compound metabolized
[16]
  Bacterial Biotransformation: Compound metabolized
[17]
  Bacterial Biotransformation: Compound metabolized
[18]
  Bacterial Biotransformation: Compound metabolized
[19]
  Bacterial Biotransformation: Compound metabolized
[20]
  Bacterial Biotransformation: Compound NOT metabolized
